Laboratory results as given in patent US20240368125A1, “NOVEL PYRAZINYL-TRIAZOLE COMPOUNDS AS PESTICIDES” (Bayer Aktiengesellschaft, priority 2021, published 2024).

Assays:
Type in all cases: in vivo
[1] = system: adult mosquitoes Aedes aegypti strain MONHEIM; assay: Aedes aegypti test (AEDSAE surface treatment & contact assay); conditions: 24 hours after contact, read-out: efficacy (mortality); for mortality at 4 mg/m2: surface concentration 4 mg/m^2, 30 min exposure; for mortality at 20 mg/m2: surface concentration 20 mg/m^2, 30 min exposure
Experimental: Aedes aegypti Test (AEDSAE Surface Treatment & Contact Assay
(§1) Solvent: Aceton+2000 ppm rapeseed oil methyl ester (RME)
(§2) In order to produce a sufficient, active ingredient containing solution it is necessary to solve the test compound in the solvent-mix (acetone at 2 mg/ml/RME 2000 ppm). This solution is pipetted onto a glazed tile and after evaporation of the acetone, adult mosquitoes of the species Aedes aegypti strain MONHEIM are placed onto the dried surface. The exposure time is 30 minutes. Mortality in percent (%) is determined 24 hours after contact of the insects to the treated surface. 100% mortality means that all tested insects are dead, whereas 0% means that no insect died.

[2] = system: adult mosquitoes Culex quinquefasciatus strain P00; assay: Culex quinquefasciatus test (CULXFA surface treatment & contact assay); conditions: 24 hours after contact, read-out: efficacy (mortality); for mortality at 4 mg/m2: surface concentration 4 mg/m^2, 30 min exposure; for mortality at 20 mg/m2: surface concentration 20 mg/m^2, 30 min exposure
Experimental: Culex quinquefasciatus Test (CULXFA Surface Treatment & Contact Assay
as §1
as §2, with “Culex quinquefasciatus” for “Aedes aegypti”, “P00” for “MONHEIM”

[3] = system: larvae of the banded cucumber beetle (Diabrotica balteata); assay: Diabrotica balteata spray test; conditions: Diabrotica balteata, 168 h; 100 g/ha (=32 μg/well), wheat seeds, after 7 days; read-out: efficacy (seedlings grown)
Procedure, shortened: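 Efficacy was read 7 days after infesting each unit with 10–20 banded cucumber beetle larvae, as % of seedlings growing like untreated, uninfested controls. Before infestation, wheat seeds germinated 1 day on agar (5 per well) were sprayed with the active ingredient. The active was formulated in acetone/DMF and diluted in water containing emulsifier.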

[4] = system: adult brown dog ticks (Rhipicephalus sanguineus); assay: Rhipicephalus sanguineus in-vitro contact test, adult brown dog ticks; conditions: Rhipicephalus sanguineus; 1 μg/cm^2 (=100 g/ha), after 48 hours; read-out: efficacy (ticks dead or moribund)
Procedure, shortened: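 Efficacy is % of adult ticks dead or moribund 48 h after confinement at room temperature in tubes wall-coated from acetone (5 μg/cm² at 900 ppm). Scoring by heat challenge at 45-50 °C up to 5 min; immotile or uncoordinated ticks failing to climb count as affected.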

[5] = system: Rhipicephalus (Boophilus) microplus larvae (strain Parkhurst, resistant against synthetic pyrethroids); assay: Rhipicephalus (Boophilus) microplus in-vitro contact test, larval cattle tick; conditions: Rhipicephalus microplus; 1 μg/cm^2 (=100 g/ha), after 48 hours; read-out: efficacy (larvae dead or moribund)
Procedure, shortened: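 Compound in acetone coated on glass tube inner walls; 900 ppm solution gives 5 μg/cm^2. Pyrethroid-resistant Parkhurst larvae (20-50 per tube) held at 27° C., 85% relative humidity; efficacy assessed after 48 h by scoring negative geotactic behavior after tapping larvae to tube bottom.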

[6] = system: fall armyworm larvae (Spodoptera frugiperda); assay: Spodoptera frugiperda spray test (SPODFR); conditions: 168 h; for mortality at 100 g/ha: in Zea mays
Procedure, shortened: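 Compound in acetone/dimethylformamide, diluted with water containing 1000 ppm alkylarylpolyglycol ether emulsifier. Maize leaf sections sprayed, dried, then infested with fall armyworm larvae. Mortality (%) scored after 7 days, 100% meaning all caterpillars killed.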

[7] = system: adult mosquitoes Anopheles funestus strain FUMOZ-R; assay: Anopheles funestus test (ANPHFU surface treatment & contact assay); conditions: 24 hours after contact, read-out: efficacy (mortality); for mortality at 4 mg/m2: surface concentration 4 mg/m^2, 30 min exposure; for mortality at 20 mg/m2: surface concentration 20 mg/m^2, 30 min exposure
Experimental: Anopheles funestus Test (ANPHFU Surface Treatment & Contact Assay
as §1
as §2, with “Anopheles funestus” for “Aedes aegypti”, “FUMOZ-R (Hunt et al., Med. Vet. Entomol. 2005 September; 19(3): 271-275)” for “MONHEIM”

## C[C@H](NC(=O)c1cc(C(F)(F)F)cc(C(F)(F)F)c1)c1ncnn1-c1cnc(C(=O)N(C)C2CC2)cn1 [Example I-007]
[1]
  mortality at 4 mg/m2: 80 to 100%
  mortality at 20 mg/m2: 80 to 100%
[2]
  mortality at 4 mg/m2: 80 to 100%
  mortality at 20 mg/m2: 80 to 100%
[3]
  pest or weed control at 32 µg/disc, 100 g/ha: 100%
[4]
  pest or weed control at 1 µg/cm2, 100 g/ha: 100%
[5]
  pest or weed control at 1 µg/cm2: 100%
[6]
  mortality at 100 g/ha: 100%

## CNC(=O)c1cnc(-n2ncnc2[C@H](C)NC(=O)c2cc(C(F)(F)F)cc(C(F)(F)F)c2)cn1 [Example I-009]
[1]
  mortality at 4 mg/m2: 80 to 100%
  mortality at 20 mg/m2: 80 to 100%
[2]
  mortality at 4 mg/m2: 80 to 100%
  mortality at 20 mg/m2: 80 to 100%
[7]
  mortality at 4 mg/m2: 85 to 100%
  mortality at 20 mg/m2: 85 to 100%
[4]
  pest or weed control at 1 µg/cm2, 100 g/ha: 100%
[5]
  pest or weed control at 1 µg/cm2: 100%
[6]
  mortality at 100 g/ha: 100%

## CNC(=O)c1cnc(-n2ncnc2[C@H](C)NC(=O)c2cc(OC(F)(F)F)cc(C3CC3)c2)cn1 [Example I-021]
[1]
  mortality at 4 mg/m2: 80 to 100%
  mortality at 20 mg/m2: 80 to 100%
[2]
  mortality at 4 mg/m2: 80 to 100%
  mortality at 20 mg/m2: 80 to 100%
[3]
  pest or weed control at 32 µg/disc, 100 g/ha: 100%
[4]
  pest or weed control at 1 µg/cm2, 100 g/ha: 100%
[5]
  pest or weed control at 1 µg/cm2: 100%
[6]
  mortality at 100 g/ha: 100%

## C[C@H](NC(=O)c1cc(OC(F)(F)F)cc(C2CC2)c1)c1ncnn1-c1cnc(C(=O)N(C)C)cn1 [Example I-002]
[1]
  mortality at 4 mg/m2: 80 to 100%
  mortality at 20 mg/m2: 80 to 100%
[2]
  mortality at 20 mg/m2: 80 to 100%
[3]
  pest or weed control at 32 µg/disc, 100 g/ha: 100%
[7]
  mortality at 4 mg/m2: 85 to 100%
  mortality at 20 mg/m2: 85 to 100%
[4]
  pest or weed control at 1 µg/cm2, 100 g/ha: 100%
[5]
  pest or weed control at 1 µg/cm2: 100%
[6]; SPODFR, 4 g ai/ha, 7 dat, read-out: % Efficacy
  Emax at 4 g/ha: 100%
[6]; SPODFR, 20 g ai/ha, 7 dat, read-out: % Efficacy
  Emax at 20 g/ha: 100%
[6]; SPODFR, 100 g ai/ha, 7 dat, read-out: % Efficacy
  Emax at 100 g/ha: 100%
[6]
  mortality at 100 g/ha: 100%

## C[C@H](NC(=O)c1cc(C(F)(F)F)cc(C(F)(F)F)c1)c1ncnn1-c1cnc(C(=O)N(C)CC2CC2)cn1 [Example I-008]
[1]
  mortality at 4 mg/m2: 80 to 100%
  mortality at 20 mg/m2: 80 to 100%
[2]
  mortality at 4 mg/m2: 80 to 100%
  mortality at 20 mg/m2: 80 to 100%
[3]
  pest or weed control at 32 µg/disc, 100 g/ha: 100%
[4]
  pest or weed control at 1 µg/cm2, 100 g/ha: 100%
[5]
  pest or weed control at 1 µg/cm2: 100%
[6]
  mortality at 100 g/ha: 100%
